# ± gives the standard deviation of the averaged measurements.
# Test: TIMS collisional cross section (CCS, N2) of the lipid ion; higher = larger ion cross section
# Settings: ionization mode: negative, one isomer drawn
# Procedure: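 Lipid extracts of human plasma (NIST SRM 1950), mouse liver or HeLa cells were separated by nanoflow C18 LC (30 min gradient) and analysed by TIMS-PASEF on a timsTOF Pro. Ion mobility was calibrated with the Agilent tuning mix (negative mode ions) and converted to collisional cross sections (Mason–Schamp, N2).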
# [1] = sample type: Mouse Liver, ion (formula + adduct): [C42H76NO8P+AcO] 1-
# 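Also: lipids from MTBE extraction, five replicate injections per sample, 100 ms TIMS ramp spanning 0.6–1.95 Vs/cm², lipid identity assigned from PASEF MS/MS spectra.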
smiles,measurement,setting,value
CCCCCCCCCCCCCCCCCCCCC(=O)O[C@H](COC(=O)CCCCCCCCCCCCCCC)COP(=O)(O)O [PA 16:0_21:0@],TIMS collisional cross section,"sample type: Mouse Liver, ion (formula + adduct): [C40H79O8P+Cl] 1-",276.3 Å²
CCCCCCCCCCCCCCCCCCCCCC(=O)O[C@H](COC(=O)CCCCCCCCCCCCCCCC)COP(=O)(O)O [PA 17:0_22:0@],TIMS collisional cross section,"sample type: Human plasma, ion (formula + adduct): [C42H83O8P-CH3] 1-",286.6 Å²
CCCCCCCCCCCCCCCCCC(=O)OC[C@H](COP(=O)(O)O)OC(=O)CCCCCCCCCCCCCCC [PA 18:0@_16:0],TIMS collisional cross section,"sample type: Mouse Liver, ion (formula + adduct): [C37H73O8P+Cl] 1-",267.2 Å²
CCCCCCCCCCCCCCCCCC(=O)OCC(COP(=O)(O)O)OC(=O)CCCCCCCCCCCCCCCCC (stereo not drawn) [PA 18:0_18:0],TIMS collisional cross section,"sample type: Mouse Liver, ion (formula + adduct): [C39H77O8P+Cl] 1-",273.4 Å²
CCCCCCCCCCCCCCCCCC(=O)O[C@H](COC(=O)CCC)COP(=O)([O-])OCC[N+](C)(C)C [PC 4:0@_18:0],TIMS collisional cross section,"sample type: Mouse Liver, ion (formula + adduct): [C30H60NO8P+HCOO] 1-",248.5 Å²
CCCCCCCCCCCCCCCCCCCC(=O)O[C@H](COC(=O)CCCCCCC)COP(=O)([O-])OCC[N+](C)(C)C [PC 8:0_20:0@],TIMS collisional cross section,"sample type: Mouse Liver, ion (formula + adduct): [C36H72NO8P+HCOO] 1-",277.6 Å²
CCCCCC/C=C\CCCCCCCC(=O)O[C@H](COC(=O)CCCCCCCCCCC)COP(=O)([O-])OCC[N+](C)(C)C [PC 12:0@_16:1],TIMS collisional cross section,"sample type: Human plasma, ion (formula + adduct): [C36H70NO8P+HCOO] 1-",275.3 Å²
CCCCCCCCCCCCCC(=O)O[C@H](COC(=O)CCCCCCCCCCC)COP(=O)([O-])OCC[N+](C)(C)C [PC 12:0_14:0],TIMS collisional cross section,"sample type: Human plasma, ion (formula + adduct): [C34H68NO8P+HCOO] 1-",270.8 Å²
CCCCC/C=C\C/C=C\CCCCCCCC(=O)O[C@H](COC(=O)CCCCCCCCCCCC)COP(=O)([O-])OCC[N+](C)(C)C [PC 13:0@_18:2],TIMS collisional cross section,"sample type: Mouse Liver, ion (formula + adduct): [C39H74NO8P-H] 1-",266.3 Å²
CCCCC/C=C\C/C=C\C/C=C\C/C=C\CCCC(=O)O[C@H](COC(=O)CCCCCCCCCCCC)COP(=O)([O-])OCC[N+](C)(C)C [PC 13:0@_20:4],TIMS collisional cross section,"sample type: Human plasma, ion (formula + adduct): [C41H74NO8P-H] 1-",289.2 Å²
same,TIMS collisional cross section,"sample type: Mouse Liver, ion (formula + adduct): [C41H74NO8P-CH3] 1-",267.1 Å²
same,TIMS collisional cross section,"sample type: Mouse Liver, ion (formula + adduct): [C41H74NO8P-H] 1-",272.3 Å²
CCCCCC/C=C\CCCCCCCC(=O)O[C@H](COC(=O)CCCCCCCCCCCCC)COP(=O)([O-])OCC[N+](C)(C)C [PC 14:0@_16:1],TIMS collisional cross section,"sample type: Mouse Liver, ion (formula + adduct): [C38H74NO8P+HCOO] 1-",280.9 Å²
CCCCCCC/C=C\CCCCCCCC(=O)O[C@H](COC(=O)CCCCCCCCCCCCC)COP(=O)([O-])OCC[N+](C)(C)C [PC 14:0@_17:1],TIMS collisional cross section,"sample type: Mouse Liver, ion (formula + adduct): [C39H76NO8P-CH3] 1-",265 Å²
CCCCCC/C=C\CCCCCCCCCC(=O)O[C@H](COC(=O)CCCCCCCCCCCCC)COP(=O)([O-])OCC[N+](C)(C)C [PC 14:0@_18:1],TIMS collisional cross section,"sample type: Human plasma, ion (formula + adduct): [C40H78NO8P+HCOO] 1-",286 Å²
CC/C=C\C/C=C\C/C=C\CCCCCCCC(=O)O[C@H](COC(=O)CCCCCCCCCCCCC)COP(=O)([O-])OCC[N+](C)(C)C [PC 14:0@_18:3],TIMS collisional cross section,"sample type: Human plasma, ion (formula + adduct): [C40H74NO8P+HCOO] 1-",284.9 Å²
CC/C=C\C/C=C\C/C=C\C/C=C\CCCCC(=O)O[C@H](COC(=O)CCCCCCCCCCCCC)COP(=O)([O-])OCC[N+](C)(C)C [PC 14:0@_18:4],TIMS collisional cross section,"sample type: Human plasma, ion (formula + adduct): [C40H72NO8P+HCOO] 1-",277.9 Å²
CCCCC/C=C\C/C=C\C/C=C\C/C=C\CCCC(=O)O[C@H](COC(=O)CCCCCCCCCCCCC)COP(=O)([O-])OCC[N+](C)(C)C [PC 14:0@_20:4],TIMS collisional cross section,"sample type: Mouse Liver, ion (formula + adduct): [C42H76NO8P-H] 1-",272.8 Å²
CC/C=C\C/C=C\C/C=C\C/C=C\C/C=C\C/C=C\CCC(=O)O[C@H](COC(=O)CCCCCCCCCCCCC)COP(=O)([O-])OCC[N+](C)(C)C [PC 14:0@_22:6],TIMS collisional cross section,"sample type: Mouse Liver, ion (formula + adduct): [C44H76NO8P-H] 1-",277.87 ± 0.55 Å²
CCCCCCCCCCCCCC(=O)OC[C@H](COP(=O)([O-])OCC[N+](C)(C)C)OC(=O)CCCCCCCCCCCCC [PC 14:0_14:0],TIMS collisional cross section,"sample type: Human plasma, ion (formula + adduct): [C36H72NO8P+HCOO] 1-",277.1 Å²
CCCCCCCCCCCCCCCC(=O)O[C@H](COC(=O)CCCCCCCCCCCCC)COP(=O)([O-])OCC[N+](C)(C)C [PC 14:0_16:0@],TIMS collisional cross section,"sample type: Mouse Liver, ion (formula + adduct): [C38H76NO8P+HCOO] 1-",283.8 Å²
CCCCCCCCCCCCCCCC(=O)O[C@H](COC(=O)CCCCCCCCCCCCC)COP(=O)([O-])OCC[N+](C)(C)C [PC 14:0_16:0],TIMS collisional cross section,"sample type: Human plasma, ion (formula + adduct): [C38H76NO8P+HCOO] 1-",282.7 Å²
CCCCCC/C=C\CCCCCCCC(=O)O[C@H](COC(=O)CCCCCCCCCCCCC)COP(=O)([O-])OCC[N+](C)(C)C [PC 14:0_16:1],TIMS collisional cross section,"sample type: Human plasma, ion (formula + adduct): [C38H74NO8P+HCOO] 1-",280.9 Å²
CCCCCCCCCCCCCCCCCC(=O)O[C@H](COC(=O)CCCCCCCCCCCCC)COP(=O)([O-])OCC[N+](C)(C)C [PC 14:0_18:0],TIMS collisional cross section,"sample type: Human plasma, ion (formula + adduct): [C40H80NO8P+HCOO] 1-",287.7 Å²
CCCCCC/C=C\CCCCCCCCCC(=O)O[C@H](COC(=O)CCCCCCCCCCCCC)COP(=O)([O-])OCC[N+](C)(C)C [PC 14:0_18:1],TIMS collisional cross section,"sample type: Mouse Liver, ion (formula + adduct): [C40H78NO8P+HCOO] 1-",286 Å²
CC/C=C\C/C=C\C/C=C\CCCCCCCC(=O)O[C@H](COC(=O)CCCCCCCCCCCCC)COP(=O)([O-])OCC[N+](C)(C)C [PC 14:0_18:3],TIMS collisional cross section,"sample type: Mouse Liver, ion (formula + adduct): [C40H74NO8P+HCOO] 1-",284 Å²
CCCCC/C=C\C/C=C\C/C=C\C/C=C\CCCC(=O)O[C@H](COC(=O)CCCCCCCCCCCCC)COP(=O)([O-])OCC[N+](C)(C)C [PC 14:0_20:4@],TIMS collisional cross section,[1],288.1 Å²
CCCCC/C=C\C/C=C\C/C=C\C/C=C\CCCC(=O)O[C@H](COC(=O)CCCCCCCCCCCCC)COP(=O)([O-])OCC[N+](C)(C)C [PC 14:0_20:4],TIMS collisional cross section,"sample type: Human plasma, ion (formula + adduct): [C42H76NO8P+HCOO] 1-",288.2 Å²
same,TIMS collisional cross section,[1],290.4 Å²
CCCC/C=C\CCCCCCCC(=O)OC[C@H](COP(=O)([O-])OCC[N+](C)(C)C)OC(=O)CCC/C=C\C/C=C\C/C=C\C/C=C\CCCCC [PC 14:1@_20:4],TIMS collisional cross section,"sample type: Human plasma, ion (formula + adduct): [C42H74NO8P-CH3] 1-",268.8 Å²
CC/C=C\C/C=C\C/C=C\C/C=C\C/C=C\CCCC(=O)O[C@H](COC(=O)CCCCCCC/C=C\CCCC)COP(=O)([O-])OCC[N+](C)(C)C [PC 14:1@_20:5],TIMS collisional cross section,"sample type: Mouse Liver, ion (formula + adduct): [C42H72NO8P-H] 1-",269.9 Å²
CCCC/C=C\CCCCCCCC(=O)OC[C@H](COP(=O)([O-])OCC[N+](C)(C)C)OC(=O)CCCCCCCCCCCCCCC [PC 14:1_16:0],TIMS collisional cross section,"sample type: Mouse Liver, ion (formula + adduct): [C38H74NO8P+Cl] 1-",268.8 Å²
CCCC/C=C\CCCCCCCC(=O)OC[C@H](COP(=O)([O-])OCC[N+](C)(C)C)OC(=O)CCCCCCC/C=C\CCCCCC [PC 14:1_16:1@],TIMS collisional cross section,"sample type: Human plasma, ion (formula + adduct): [C38H72NO8P+HCOO] 1-",278.6 Å²
CCCCCC/C=C\CCCCCCCC(=O)O[C@H](COC(=O)CCCCCCCCCCCCCC)COP(=O)([O-])OCC[N+](C)(C)C [PC 15:0@_16:1],TIMS collisional cross section,"sample type: Mouse Liver, ion (formula + adduct): [C39H76NO8P+AcO] 1-",285.4 Å²
CCCCC/C=C\C/C=C\C/C=C\CCCCC(=O)O[C@H](COC(=O)CCCCCCCCCCCCCC)COP(=O)([O-])OCC[N+](C)(C)C [PC 15:0@_18:3],TIMS collisional cross section,"sample type: Human plasma, ion (formula + adduct): [C41H76NO8P+HCOO] 1-",287.1 Å²
CCCCC/C=C\C/C=C\C/C=C\C/C=C\CCCC(=O)O[C@H](COC(=O)CCCCCCCCCCCCCC)COP(=O)([O-])OCC[N+](C)(C)C [PC 15:0@_20:4],TIMS collisional cross section,"sample type: Human plasma, ion (formula + adduct): [C43H78NO8P+OAcO] 1-",295.5 Å²
same,TIMS collisional cross section,"sample type: Mouse Liver, ion (formula + adduct): [C43H78NO8P-H] 1-",285.5 ± 12 Å²
CC/C=C\C/C=C\C/C=C\C/C=C\C/C=C\C/C=C\CCC(=O)O[C@H](COC(=O)CCCCCCCCCCCCCC)COP(=O)([O-])OCC[N+](C)(C)C [PC 15:0@_22:6],TIMS collisional cross section,"sample type: Mouse Liver, ion (formula + adduct): [C45H78NO8P-H] 1-",280.7 Å²
